Experimental data published in patent publication US6008226A, “Substituted N-arylmethyl and heterocylylmethyl-1H-pyrazolo[3,4-b]quinolin-4-amines and compositions and methods of use thereof” (Sanofi-Synthelabo, priority 1998, dated 1999).
Where a name gives a salt, the structure may show the parent alone.

Legend:
cGMP-PDE V [1] = biological target: T1, cGMP-PDE V (Homo sapiens, UniProt O76074); assay: c-GMP-PDE V inhibitory activity (cyclic nucleotide hydrolysis by isolated PDE isozymes); format: biochemical, various animal species and man; conditions: for inhibition at 10 µM: read-out: Percent Inhibition cGMP-PDE V
T1 construct: The cGMP-PDE and other PDE isozymes were isolated from cardiovascular tissues (heart and aorta); from tissue; host or cells: cardiovascular tissues (heart and aorta) of various animal species and man
Procedure: The cGMP-PDE and other PDE isozymes were isolated from cardiovascular tissues (heart and aorta) of various animal species and man by anion-exchange and affinity chromatography as described by Silver et al., Sec. Messeng. Phos. 13: 13-25, 1991; PDE activity, in the presence and absence of test compounds was determined essentially as described by Thompson et al., Adv. Cyclic Nucleotide Res. 10: 69-92. To determine the potency and selectivity of compounds as PDE inhibitors, compounds are screened for their effect on cyclic nucleotide hydrolysis at 10 μM. If ≥50% inhibition of PDE activity is observed, an IC50 value (concentration of compound causing 50% reduction in PDE activity) and corresponding 95% confidence intervals are generated. The IC50 values are calculated from concentration-response curves as described by Tallarida and Murray, Manual of Pharmacologic Calculations with Computer Programs, Procedure 8, Graded Dose-response, pp. 14-19, Springer-Verlag, New York, 1981.

[2] = test system: Spontaneously hypertensive rats (SHR); assay: antihypertensive activity in conscious spontaneously hypertensive rats (SHR), iv; format: in vivo, rat; conditions: for ED25: Rattus norvegicus, 5 min, iv, 5 minutes after each cumulative dose, read-out: SHR iv ED25, mean arterial pressure
Procedure: After a 2 day recovery from surgery, three baseline blood pressure measurements were made at 5 min intervals in conscious SHR. Compounds to be tested or vehicle were then administered intravenously in a dose-dependent manner (0.3-10 mg base/kg) while arterial pressure was recorded continuously on a polygraph. The mean arterial pressure response was measured 5 minutes after the administration of each dose of the test compound and the next dose given in a cumulative dose fashion. The response to each dose of the test compound was calculated as the difference from the mean of the three baseline measurements.

cGMP-PDE V [3] = biological target: T1, cGMP-PDE V; assay: c-GMP-PDE V inhibitory activity (cyclic nucleotide hydrolysis by isolated PDE isozymes); format: biochemical, various animal species and man; conditions: read-out: Percent Inhibition cGMP-PDE V
interferon = conditions: Crenshaw et al.; cited from earlier work
[4] = test system: Spontaneously hypertensive rats; assay: reversing or reducing nitrate-induced tolerance in spontaneously hypertensive rats; format: in vivo, rat
Procedure: Spontaneously hypertensive rats (17-25 weeks of age) are made nitroglycerin tolerant by repeated administration of high doses of nitroglycerin (100 mg/kg, s.c., 3 times/day for 3 consecutive days). To confirm tolerance challenge doses of nitroglycerin are administered intravenously at doses ranging from 1-300 μg/kg and the maximum change in mean arterial pressure (MAP) for each dose is recorded. Groups of tolerant rats are then pretreated with the compounds of the invention (tolerant pretreated group) or with vehicle (0.05 N NaOH) (tolerant vehicle pretreated group) intravenously 5-10 minutes prior to administration of challenge doses of nitroglycerin. The administration of challenge doses of nitroglycerin to non-tolerant rats (the non-tolerant group) causes a dose-dependent decrease in MAP of between 10 to 40 mm Hg. […] It is expected that the administration of challenge doses of nitroglycerin to tolerant rats which have been pretreated with the compounds of the invention (tolerant pretreated group) should result in varying degrees of restoration of the hypotensive response. The area under the dose-MAP curve is then calculated for the non-tolerant group and for the tolerant vehicle pretreated group and the tolerant pretreated group. The percent reversal of nitrate-inducedtolerance is then calculated as follows:
Percent Reversal=(AUCtol-pretreated -AUCtol-veh)/(AUCnontol […]

Row | Structure (SMILES) | IC50 (cGMP-PDE V [1]) [nM] | inhibition at 10 µM (cGMP-PDE V [1]) [%] | inhibition at 1 µM (cGMP-PDE V [3]) [%] | also measured
1 | CCn1ncc2c(NCc3ccc(OC)c(OC)c3)c3ccccc3nc21 [Example 7, 1-ethyl-N-(3,4-dimethoxyphenylmethyl)-1H-pyrazolo[3,4-b]quinolin-4-amine] | 180 | – | – | –
2 | CCn1ncc2c(NCc3cccc(O)c3)c3ccccc3nc21 [Example 13, 1-ethyl-N-(3-hydroxyphenylmethyl)-1H-pyrazolo [3,4-b]quinolin-4-amine] | 150 | – | – | –
3 | CCn1nc(C)c2c(NCc3ccccc3)c3ccccc3nc21 [9(d), 1-ethyl-3-methyl-N-(phenylmethyl)-1H-pyrazolo[3,4-b]quinolin-4-amine·HCl] | 170 | – | – | –
4 | Cc1nn(C)c2nc3ccccc3c(NCc3ccccc3)c12 [Example 12(c), 1,3-dimethyl-N-(phenylmethyl)-1H-pyrazolo[3,4-b]quinolin-4-amine] | 1140 | – | – | –
5 | CC(C)n1ncc2c(NCc3ccccc3)c3ccccc3nc21 [4(c), 1-isopropyl-N-(phenylmethyl)-1H-pyrazolo[3,4-b]quinolin-4-amine] | 180 | – | – | –
6 | CCn1ncc2c(NCc3ccc(O)cc3)c3cc(O)ccc3nc21 [Example 24, 1-ethyl-6-hydroxy-N-(4-hydroxyphenylmethyl)-1H-pyrazolo[3,4-b]quinolin-4-amine-CH3 SO3 H] | 120 | – | – | SHR iv % change in mean arterial pressure ([2]; 1 mg/kg iv): -10%; SHR iv % change in mean arterial pressure ([2]; 3 mg/kg iv): -9%; SHR iv % change in mean arterial pressure ([2]; 10 mg/kg iv): -15%
7 | CCn1ncc2c(NCc3ccc(OC)cc3)c3cc(OC)ccc3nc21 [23(c), 1-ethyl-6-methoxy-N-(4-methoxyphenylmethyl)-1H-pyrazolo[3,4-b]quinolin-4-amine·CH3 SO3 H] | 14 | – | – | SHR iv % change in mean arterial pressure ([2]; 1 mg/kg iv): -7%; SHR iv % change in mean arterial pressure ([2]; 3 mg/kg iv): -4%
8 | CCn1ncc2c(NCc3ccccc3)c3ccc(OC)cc3nc21 [5(e), 1-ethyl-7-methoxy-N-(phenylmethyl)-1H-pyrazolo[3,4-b]quinolin-4-amine] | – | 85 | 54 | inhibition at 0.1 µM (cGMP-PDE V [3]): 14%
9 | CCn1ncc2c(NCc3ccc(O)cc3)c3ccccc3nc21 [18(a), 1-ethyl-N-(4-hydroxyphenylmethyl)-1H-pyrazolo[3,4-b]quinolin-4-amine CH3 SO3 H] | 91 | – | – | –
10 | CCn1ncc2c(NCc3ccccn3)c3ccccc3nc21 [Example 21, 1-ethyl-N-(2-pyridinylmethyl)-1H-pyrazolo[3,4-b]quinolin-4-amine-2CH3SO3 H] | – | 97 | 58 | inhibition at 0.1 µM (cGMP-PDE V [3]): 27%
11 | CCn1ncc2c(NCc3ccccc3)c3ccc(O)cc3nc21 [Example 6, 1-ethyl-7-hydroxy-N-(phenylmethyl)-1H-pyrazolo[3,4-b]quinolin-4-amine] | – | 85 | 50 | inhibition at 0.1 µM (cGMP-PDE V [3]): 17%
12 | CCn1ncc2c(NCc3cccc(O)c3)c3ccccc3nc21 [Example 14, 1-ethyl-N-(3-hydroxyphenylmethyl)-1H-pyrazolo[3,4-b]quinolin-4-amine·2 CH3 SO3 H] | 86 | – | – | –
13 | Cc1nn(C)c2nc3ccccc3c(NCc3cccnc3)c12 [N-(3-pyridinylmethyl), N-(3-pyridinylmethyl)-1,3-dimethyl-1H-pyrazolo[3,4-b] quinolin-4-amine] | – | – | – | activity in the interferon assay (interferon): inactive
14 | CCn1ncc2c(NCc3ccccc3)c3ccccc3nc21 [1(a), 1-ethyl-N-(phenylmethyl)-1H-pyrazolo[3,4-b]quinolin-4-amine] | 210 | – | – | ED25 [2]: 25 mg/kg
15 | Cc1nn(C)c2nc3ccccc3c(NCCCNC34CC5CC(CC(C5)C3)C4)c12 [N-(1,3-dimethyl-1H-pyrazolo[3,4-b]quinolin-4-yl)-N'-tricyclo[3.3.1.1^3,7]dec-1-yl-1,3-propane diamine] | – | – | – | activity in the interferon assay (interferon): inactive
16 | CCn1ncc2c(NCc3cccc(OC)c3)c3ccccc3nc21 [Example 11, 1-ethyl-N-(3-methoxyphenylmethyl)-1H-pyrazolo[3,4-b]quinolin-4-amine] | 450 | – | – | –
17 | Cc1nn(C)c2nc3ccccc3c(NC34CC5CC(CC(C5)C3)C4)c12 [N-tricyclo[3.3.1.1^3,7]dec-1-yl, N-tricyclo[3.3.1.1^3,7]dec-1-yl-1,3-dimethyl-1H-pyrazolo[3,4-b] quinolin-4-amine] | – | – | – | activity in the interferon assay (interferon): inactive
18 | CCn1ncc2c(N(C)Cc3ccccc3)c3ccccc3nc21 [Example 20, 1-ethyl-N-(methyl)-N-(phenylmethyl)-1H-pyrazolo[3,4-b]quinolin-4-amine·CH3 SO3 H] | 1260 | – | – | –
19 | CCn1ncc2c(NCc3ccc(OC)cc3)c3ccccc3nc21 [Example 3, 1-ethyl-N-(4-methoxyphenylmethyl)-1H-pyrazolo[3,4-b]quinolin-4-amine·HCl·1/2H2 O] | 89 | – | – | –
20 | CCn1ncc2c(NC3CCc4ccccc43)c3ccccc3nc21 (stereo not shown) [Example 22, 1-ethyl-N-(1-indanyl)-1H-pyrazolo[3,4-b]quinolin-4-amine·CH3 SO3 H] | – | 94 | 75 | inhibition at 0.1 µM (cGMP-PDE V [3]): 34%
21 | CCn1ncc2c(NCc3cccnc3)c3ccccc3nc21 [Example 19, 1-ethyl-N-(3-pyridinylmethyl)-1H-pyrazolo[3,4-b]quinolin-4-amine ·2CH3 SO3 H] | – | 75 | 43 | inhibition at 0.1 µM (cGMP-PDE V [3]): 10%
22 | CCn1ncc2c(NCc3ccc(O)cc3)c3ccccc3nc21 [18(b), 1-ethyl-N-(4-hydroxyphenylmethyl)-1H-pyrazolo[3,4-b]quinolin-4-amine] | – | 78 | 82 | inhibition at 0.1 µM (cGMP-PDE V [3]): 63%
23 | CCn1ncc2c(NCc3ccc(C#N)cc3)c3ccccc3nc21 [Example 10, 1-ethyl-N-(4-cyanophenylmethyl)-1H-pyrazolo[3,4-b]quinolin-4-amine] | – | 57 | 0 | –
24 | CCn1ncc2c(NCc3ccc(OCCN4CCOCC4)cc3)c3ccccc3nc21 [15(c), 1-ethyl-N-[4-[2-(4-morpholinyl)ethoxy]phenylmethyl]-1H-pyrazolo[3,4-b]quinolin-4-amine] | – | 34 | 20 | inhibition at 0.1 µM (cGMP-PDE V [3]): 0%
25 | CCn1ncc2c(NCCc3ccccc3)c3ccccc3nc21 [2(c), 1-ethyl-N-(phenylethyl)-1H-pyrazolo[3,4-b]quinoline-4 amine] | 4200 | – | – | ED25 [2]: 16.5 mg/kg
26 | Cc1nn(C)c2nc3ccccc3c(NCc3ccccc3N(C)C)c12 [N-[[2-(dimethylamino)phenyl]methyl]-1,3-dimethyl-1H-pyrazolo[3,4-b] quinolin-4-amines] | – | – | – | activity in the interferon assay (interferon): inactive
27 | O=[N+]([O-])OCC(CO[N+](=O)[O-])O[N+](=O)[O-] [nitroglycerin] | – | – | – | dose-dependent decrease in MAP ([4]; non-tolerant rats, nitroglycerin challenge 1-300 μg/kg iv): 10 to 40 mm Hg; hypotensive response to challenge doses of nitroglycerin ([4]; tolerant vehicle pretreated group, 1-300 μg/kg iv): significant reduction of the hypotensive response
28 | CCn1ncc2c(NCc3ccco3)c3ccccc3nc21 [Example 16, 1-ethyl-N-(2-furanylmethyl)-1H-pyrazolo[3,4-b]quinolin-4-amine] | – | – | – | SHR iv % change in mean arterial pressure ([2]; 10 mg/kg iv): -16%
29 | CCn1ncc2c(NCc3ccncc3)c3ccccc3nc21 [Example 8, 1-ethyl-N-(4-pyridinylmethyl)-1H-pyrazolo[3,4-b]quinolin-4-amine] | – | 50 | 5 | inhibition at 0.1 µM (cGMP-PDE V [3]): 0%
30 | Cc1nn(C)c2nc3ccccc3c(NC3CC3)c12 [N-cyclopropyl, N-cyclopropyl-1,3-dimethyl-1H-pyrazolo[3,4-b] quinolin-4-amine] | – | – | – | activity in the interferon assay (interferon): inactive
